System: P. pastoris
Assay: P. pastoris fed-batch fermentation Run 01MAY11: effects of hydroxyurea on cell growth and anti-IL-6 antibody productivity
Format: cell-based, Pichia pastoris
Conditions: for Sup Titer / WCW / WB Titer: Lots T5, T6 & T10; for Sup Titer / WB Titer: hydroxyurea 2.6-2.8 g/L; for WCW: hydroxyurea 2.6-2.8 g/L added 5 hours after feed start; for WB Titer: calculated from supernatant titer and WCW
Procedure: The glucose and ethanol were measured by YSI 2700 (YSI Incorporated, Yellow Springs, Ohio), O2 and CO2 of the exhaust line were measured by Questor GP Process Mass Spectrometer (ABB Extrel, Pittsburg, Pa.) and the RQ value was calculated using below Equation [1]. The wet cell weight (WCW) was measured by centrifuging 1 milliliter (mL) fermentation broth at 13,200 rpm for 10 minutes, weighing pellet, and calculated ratio of pellets weight (g) over volume (mL). The supernatant titer (g/L) was measured by the HPLC method and the whole broth (WB) titer was then calculated by below Equation [2].
WB_Titer=Supernatant_Titer*(1−WCW/1000)
The treatment cultures were operated the same way plus adding hydroxyurea 5 hours after feed start.

NC(=O)NO [Hydroxyurea]
average whole broth titer (90 hours run time, three hydroxyurea treatment lots, control 59.8): 75 normalized units
Sup Titer (Age 59 h): 83.9 ± 2.2 Normalized
WCW (Age 59 h): 437 ± 17 g/kg
WB Titer (Age 59 h): 47.2 ± 1.8 Normalized
Sup Titer (Age 90 h): 123.3 ± 5.8 Normalized
WCW (Age 90 h): 392 ± 20 g/kg
WB Titer (Age 90 h): 75.0 ± 2.7 Normalized
WCW reached/maintained by hydroxyurea treatment lots (after peak cell density at 30-40 hours, control lots ~400 g/Kg): ~450 g/kg
